Reference: PubChem BioAssay AID198 (DTP/NCI, 2004)
Values joined by “and” are separate entries in the source; they are usually repeats but may differ in a detail not shown here. Equal values may be shown once. Inconclusive results and toxic doses are left out.

System: B16 melanoma ip, C57BL/6 mice, median survival T/C
Assay: NCI In Vivo Anticancer Drug Screen. Data for tumor model B16 Melanoma (intraperitoneal) in C57BL/6 mice
Settings: endpoint: median survival time, higher = longer survival
Protocol: The antitumor activity of compounds was measured in mice bearing transplantable tumors. Survival or tumor size were measured and the results are expressed as the measurement made in the treated group (T) divided by the measurement made in the vehicle treated control group (C). The tumor model used in this assay is B16 Melanoma (intraperitoneal) in C57BL/6 mice

[1] = dose: 25.0 mg/kg/injection, schedule: Q01DX009 (ip), vehicle: saline
[2] = dose: 50.0 mg/kg/injection, schedule: Q01DX009 (ip), vehicle: saline
[3] = dose: 100.0 mg/kg/injection, schedule: Q01DX009 (ip), vehicle: saline
[4] = dose: 200.0 mg/kg/injection, schedule: Q01DX009 (ip), vehicle: saline
[5] = dose: 6.25 mg/kg/injection, schedule: Q01DX009 (ip), vehicle: saline
[6] = dose: 12.5 mg/kg/injection, schedule: Q01DX009 (ip), vehicle: saline
[7] = dose: 1.5 mg/kg/injection, schedule: Q01DX009 (ip), vehicle: saline
[8] = dose: 0.25 mg/kg/injection, schedule: Q01DX009 (ip), vehicle: saline
[9] = dose: 0.5 mg/kg/injection, schedule: Q01DX009 (ip), vehicle: saline
[10] = dose: 1.0 mg/kg/injection, schedule: Q01DX009 (ip), vehicle: saline
[11] = dose: 1.0 mg/kg/injection, schedule: Q01DX009 (ip), vehicle: saline with Tween-80
[12] = dose: 8.0 mg/kg/injection, schedule: Q01DX009 (ip), vehicle: saline
[13] = dose: 16.0 mg/kg/injection, schedule: Q01DX009 (ip), vehicle: saline
[14] = dose: 31.3 mg/kg/injection, schedule: Q01DX009 (ip), vehicle: saline
[15] = dose: 15.6 mg/kg/injection, schedule: Q01DX009 (ip), vehicle: saline
[16] = dose: 62.5 mg/kg/injection, schedule: Q01DX009 (ip), vehicle: saline
[17] = dose: 125.0 mg/kg/injection, schedule: Q01DX009 (ip), vehicle: saline
[18] = dose: 12.5 mg/kg/injection, schedule: Q01DX009 (ip), vehicle: saline with Tween-80
[19] = dose: 25.0 mg/kg/injection, schedule: Q01DX009 (ip), vehicle: saline with Tween-80
[20] = dose: 50.0 mg/kg/injection, schedule: Q01DX009 (ip), vehicle: saline with Tween-80
[21] = dose: 3.13 mg/kg/injection, schedule: Q01DX009 (ip), vehicle: saline

## COc1c(C)c2c(c(O)c1C/C=C(\C)CCC(=O)O)C(=O)OC2
[1]
  T/C: 106 % of control
[2]
  T/C: 113 % of control
[3]
  T/C: 110 % of control
[4]
  T/C: 106 % of control

## CC1OC(O[C@@H]2C=C3CC[C@@H]4[C@H](CC[C@]5(C)[C@@H](c6ccc(=O)oc6)CC[C@]45O)[C@@]3(C)CC2)C(O)C(O)C1O (some centres undefined)
dose: 2.5 mg/kg/injection, schedule: Q01DX009 (sc), vehicle: steriod suspending solution
  T/C: 113 % of control
dose: 5.0 mg/kg/injection, schedule: Q01DX009 (sc), vehicle: steriod suspending solution
  T/C: 97 % of control

## Cn1c(=O)c2ncnnc2n(C)c1=O
[5]
  T/C: 106 % of control
[6]
  T/C: 103 % of control

## N[C@@H](Cc1ccc(N(CCCl)CCCl)cc1)C(=O)O
[7]
  T/C: 170 % of control and 228 % of control
dose: 3.0 mg/kg/injection, schedule: Q01DX009 (ip), vehicle: saline
  T/C: 210 % of control
dose: 6.0 mg/kg/injection, schedule: Q01DX009 (ip), vehicle: saline
  T/C: 226 % of control
dose: 12.0 mg/kg/injection, schedule: Q01DX009 (ip), vehicle: saline
  T/C: 93 % of control

## COc1cccc2c1C(=O)c1c(O)c3c(c(O)c1C2=O)C[C@@](O)(C(C)=O)C[C@@H]3OC1CC(N)C(O)C(C)O1 (some centres undefined)
[8]
  T/C: 177 % of control
[9]
  T/C: 188 % of control
[10]
  T/C: 277 % of control
dose: 2.0 mg/kg/injection, schedule: Q01DX009 (ip), vehicle: saline
  T/C: 186 % of control

## CN1C=c2c3c(ccc2=C2C=CC4C=C5OCOC5=CC4=C21)OCO3 (centres undefined)
[11]
  T/C: 103 % of control
dose: 2.0 mg/kg/injection, schedule: Q01DX009 (ip), vehicle: saline with Tween-80
  T/C: 92 % of control
dose: 4.0 mg/kg/injection, schedule: Q01DX009 (ip), vehicle: saline with Tween-80
  T/C: 96 % of control

## C[n+]1c2ccccc2c(Nc2ccc(NS(=O)(=O)CCCCN=C(N)N)cc2)c2ccc(N)cc21
dose: 0.38 mg/kg/injection, schedule: Q01DX009 (ip), vehicle: water
  T/C: 115 % of control
dose: 0.75 mg/kg/injection, schedule: Q01DX009 (ip), vehicle: water
  T/C: 158 % of control
dose: 1.5 mg/kg/injection, schedule: Q01DX009 (ip), vehicle: water
  T/C: 151 % of control
dose: 3.0 mg/kg/injection, schedule: Q01DX009 (ip), vehicle: water
  T/C: 113 % of control
dose: 6.0 mg/kg/injection, schedule: Q01DX009 (ip), vehicle: water
  T/C: 101 % of control

## Nc1ncnc2c(C3OC(CO)C(O)C3O)[nH]nc12 (centres undefined)
[12]
  T/C: 153 % of control
[13]
  T/C: 113 % of control
[14]
  T/C: 157 % of control

## CC(C)=CCC/C(C)=C/CO
[15]
  T/C: 93 % of control
[14]
  T/C: 96 % of control
[16]
  T/C: 86 % of control
[17]
  T/C: 86 % of control

## O=C(Nc1ccc(C2=NCCN2)cc1)c1ccc(C(=O)Nc2ccc(C3=NCCN3)cc2)cc1
[12]
  T/C: 100 % of control
[13]
  T/C: 92 % of control and 109 % of control
dose: 32.0 mg/kg/injection, schedule: Q01DX009 (ip), vehicle: saline
  T/C: 92 % of control and 106 % of control
dose: 64.0 mg/kg/injection, schedule: Q01DX009 (ip), vehicle: saline
  T/C: 96 % of control and 106 % of control

## NC(Cc1ccc(N(CCCl)CCCl)cc1)C(=O)O (centres undefined)
dose: 4.0 mg/kg/injection, schedule: Q01DX009 (ip), vehicle: saline
  T/C: 200 % of control and 268 % of control and 350 % of control

## C1CN1c1nc(N2CC2)nc(N2CC2)n1
dose: 0.13 mg/kg/injection, schedule: Q01DX009 (ip), vehicle: saline
  T/C: 103 % of control and 116 % of control and 120 % of control
[8]
  T/C: 109 % of control and 120 % of control and 122 % of control
[9]
  T/C: 86 % of control
[10]
  T/C: 100 % of control

## CC(=O)OC(C)(C)/C=C/C(=O)[C@](C)(O)[C@H]1[C@H](O)C[C@@]2(C)[C@@H]3CC=C4[C@@H](C[C@H](O)C(=O)C4(C)C)[C@]3(C)C(=O)C[C@]12C
dose: 0.25 mg/kg/injection, schedule: Q01DX009 (ip), vehicle: saline with Tween-80
  T/C: 92 % of control
dose: 0.5 mg/kg/injection, schedule: Q01DX009 (ip), vehicle: saline with Tween-80
  T/C: 100 % of control
[11]
  T/C: 92 % of control

## O=c1[nH]cc(F)c(=O)[nH]1
dose: 5.0 mg/kg/injection, schedule: Q01DX009 (ip), vehicle: saline
  T/C: 113 % of control
dose: 10.0 mg/kg/injection, schedule: Q01DX009 (ip), vehicle: saline
  T/C: 120 % of control
dose: 20.0 mg/kg/injection, schedule: Q01DX009 (ip), vehicle: saline
  T/C: 123 % of control

## c1ccc2sc(SSN3CC4CCC(CC4)C3)nc2c1
[18]
  T/C: 100 % of control
[19]
  T/C: 94 % of control
[20]
  T/C: 94 % of control
dose: 100.0 mg/kg/injection, schedule: Q01DX009 (ip), vehicle: saline with Tween-80
  T/C: 89 % of control
dose: 200.0 mg/kg/injection, schedule: Q01DX009 (ip), vehicle: saline with Tween-80
  T/C: 88 % of control

## COC1=C(N)C(=O)c2nc(-c3nc(C(=O)O)c(C)c(-c4ccc(OC)c(OC)c4O)c3N)ccc2C1=O
dose: 0.03 mg/kg/injection, schedule: Q01DX009 (ip), vehicle: saline
  T/C: 103 % of control
dose: 0.05 mg/kg/injection, schedule: Q01DX009 (ip), vehicle: saline
  T/C: 93 % of control and 100 % of control and 118 % of control

## CC1([N+](=O)[O-])COP(=O)(NC2CCCC2)OC1 (centres undefined)
[2]
  T/C: 100 % of control
[3]
  T/C: 96 % of control
[4]
  T/C: 96 % of control

## N#CSCc1ccc(Cl)cc1Cl
[19]
  T/C: 102 % of control
[20]
  T/C: 100 % of control

## CC1CC(C)(O)CC(C(O)CC2CC(=O)NC(=O)C2)C1=O (centres undefined)
dose: 0.1 mg/kg/injection, schedule: Q01DX009 (ip), vehicle: saline
  T/C: 111 % of control
dose: 0.2 mg/kg/injection, schedule: Q01DX009 (ip), vehicle: saline
  T/C: 122 % of control
dose: 0.4 mg/kg/injection, schedule: Q01DX009 (ip), vehicle: saline
  T/C: 116 % of control
dose: 0.8 mg/kg/injection, schedule: Q01DX009 (ip), vehicle: saline
  T/C: 86 % of control

## O=c1[nH]cc(N(CCCl)CCCl)c(=O)[nH]1
[7]
  T/C: 87 % of control and 106 % of control

## O=NN(CCCl)C(=O)Nc1ccc(CCO)cc1
dose: 1.56 mg/kg/injection, schedule: Q01DX009 (ip), vehicle: saline
  T/C: 195 % of control
[21]
  T/C: 190 % of control

## COc1cc(/C=N\O)nc(-c2ccccn2)c1
[1]
  T/C: 100 % of control
[2]
  T/C: 106 % of control
[3]
  T/C: 93 % of control

## CC[C@H]1CN2CCc3cc(OC)c(OC)cc3[C@@H]2C[C@@H]1C[C@H]1NCCc2cc(OC)c(OC)cc21
dose: 1.0 mg/kg/injection, schedule: Q03DX005 (ip), vehicle: saline
  T/C: 106 % of control
dose: 2.0 mg/kg/injection, schedule: Q03DX005 (ip), vehicle: saline
  T/C: 109 % of control
dose: 16.0 mg/kg/injection, schedule: Q03DX005 (ip), vehicle: saline
  T/C: 87 % of control

## COc1cc(C[C@H]2c3cc(OC)c(OC)cc3CCN2C)c(Oc2cc3c(cc2OC)-c2c(OC)c(OC)cc4c2[C@H](C3)N(C)CC4)cc1OC
[1]
  T/C: 96 % of control
[2]
  T/C: 96 % of control
[3]
  T/C: 92 % of control

## O=P1(N(CCCl)CCCl)NCCCO1 (centres undefined)
[1]
  T/C: 93 % of control
[3]
  T/C: 90 % of control

## CN1CCN(CCCN2c3ccccc3Sc3ccc(C(F)(F)F)cc32)CC1
[1]
  T/C: 107 % of control

## O=NN(CCCl)C(=O)Nc1ccc(CCCl)cc1
[21]
  T/C: 267 % of control
[5]
  T/C: 217 % of control

## OC1CCCC2CCC[N-]C12.OC1CCCC2CCC[N-]C12.[O]=[V][OH] (centres undefined)
dose: 6.25 mg/kg/injection, schedule: Q01DX009 (ip), vehicle: saline with Tween-80
  T/C: 107 % of control
[18]
  T/C: 107 % of control
[19]
  T/C: 107 % of control

## CCOC(=O)n1cnc2ncnc(SC)c21
[15]
  T/C: 105 % of control
[14]
  T/C: 100 % of control
[16]
  T/C: 105 % of control
[17]
  T/C: 100 % of control

## CCc1nc(N)nc(N)c1-c1ccc(Cl)cc1
[1]
  T/C: 96 % of control
[2]
  T/C: 100 % of control
[3]
  T/C: 93 % of control
[4]
  T/C: 113 % of control

## CN(C)CCCN1c2ccccc2Sc2ccc(Cl)cc21
[21]
  T/C: 100 % of control and 97 % of control
[5]
  T/C: 100 % of control and 102 % of control
[6]
  T/C: 111 % of control and 105 % of control
[1]
  T/C: 100 % of control and 108 % of control

## C=CCN(CC=C)c1ncnc2[nH]ncc12
[15]
  T/C: 105 % of control
[14]
  T/C: 100 % of control
[16]
  T/C: 102 % of control
[17]
  T/C: 102 % of control

## O=C1CN(CCN2CC(=O)NC(=O)C2)CC(=O)N1
dose: 30.0 mg/kg/injection, schedule: Q01DX009 (ip), vehicle: saline
  T/C: 150 % of control
